Results: the supplement of paper PMC6965134
± gives the standard deviation of the averaged measurements.

Assay: TIMS collisional cross section (CCS, N2) of the lipid ion; higher = larger ion cross section
Conditions: ionization mode: positive, one isomer drawn

| TIMS collisional cross section (sample type: HeLa) [Å²] | TIMS collisional cross section (sample type: plasma) [Å²] | TIMS collisional cross section (sample type: Liver) [Å²] | SMILES |
| --- | --- | --- | --- |
| 282.1 |  |  | CCCCCC/C=C\CCCCCCCCCC(=O)O[C@H](COC(=O)CCCCCCCCCCCCCCC)COP(=O)(O)OC[C@H](N)C(=O)O [PS 16:0_18:1@] (ion (formula + adduct): [C40H76NO10P+H] 1+) |
|  | 294.45 ± 0.21 |  | CCCCCCCC/C=C\CCCCCCCCCCCC(=O)N[C@@H](COP(=O)([O-])OCC[N+](C)(C)C)[C@H](O)/C=C/CCCCCCCCCCC [SM d16:1_22:1@] (ion (formula + adduct): [C43H85N2O6P+H] 1+) |
|  | 299.8 |  | CCCCCCCC/C=C\CCCCCCCCCCCCCC(=O)N[C@@H](COP(=O)([O-])OCC[N+](C)(C)C)[C@H](O)/C=C/CCCCCCCCCCC [SM d16:1_24:1@] (ion (formula + adduct): [C45H89N2O6P+H] 1+) |
| 302.1 |  |  | CCCCCCCC/C=C\CCCCCCCCCCCCCC(=O)N[C@@H](COP(=O)([O-])OCC[N+](C)(C)C)[C@H](O)/C=C/CCCCCCCCCCCC [SM d17:1_24:1@] (ion (formula + adduct): [C46H91N2O6P+H] 1+) |
|  | 299 | 299.3 | CCCCCCCC/C=C\CCCCCCCCCCCC(=O)N[C@@H](COP(=O)([O-])OCC[N+](C)(C)C)[C@H](O)/C=C/CCCCCCCCCCCCC [SM d18:1_22:1@] (ion (formula + adduct): [C45H89N2O6P+H] 1+) |

The next lines start with the compound.

| SMILES | TIMS collisional cross section (sample type: HeLa) [Å²] | TIMS collisional cross section (sample type: plasma) [Å²] | TIMS collisional cross section (sample type: Liver) [Å²] |
| --- | --- | --- | --- |
| CCCCCCCCCCC/C=C/[C@@H](O)[C@H](COP(=O)([O-])OCC[N+](C)(C)C)NC(=O)CCCCCCCCCCCCCCC [SM d16:1_16:0@] (ion (formula + adduct): [C37H75N2O6P+H] 1+) |  | 279.1 |  |
| CCCCCCCCCCCCCCCCCCCCCCCC(=O)N[C@@H](COP(=O)([O-])OCC[N+](C)(C)C)[C@H](O)CCCCCCCCCCCCCCC [SM d18:0_24:0@] (ion (formula + adduct): [C47H97N2O6P+H] 1+) |  | 309.6 |  |
| CCCCCCCC/C=C\CCCCCCCC(=O)N[C@@H](COP(=O)([O-])OCC[N+](C)(C)C)[C@H](O)/C=C/CCCCCCCCCCCCC [SM d18:1@_18:1@] (ion (formula + adduct): [C41H81N2O6P+H] 1+) |  | 287.5 |  |
| CCCCCCCCCCCCC/C=C/[C@@H](O)[C@H](COP(=O)([O-])OCC[N+](C)(C)C)NC(=O)CCCCCCCCCCCCC [SM d18:1_14:0@] (ion (formula + adduct): [C37H75N2O6P+H] 1+) | 279.1 |  |  |
| CCCCCCCCCCCCC/C=C/[C@@H](O)[C@H](COP(=O)([O-])OCC[N+](C)(C)C)NC(=O)CCCCCCCCCCCCCCC [SM d18:1_16:0@] (ion (formula + adduct): [C39H79N2O6P+H] 1+) | 284.9 | 285.4 | 285 |
| CCCCCCCCCCCCC/C=C/[C@@H](O)[C@H](COP(=O)([O-])OCC[N+](C)(C)C)NC(=O)CCCCCCCCCCCCCCCCCCC [SM d18:1_20:0@] (ion (formula + adduct): [C43H87N2O6P+H] 1+) |  | 297 |  |
| CCCCCCCCCCCCC/C=C/[C@@H](O)[C@H](COP(=O)([O-])OCC[N+](C)(C)C)NC(=O)CCCCCCCCCCCCCCCCCCCCC [SM d18:1_22:0@] (ion (formula + adduct): [C45H91N2O6P+H] 1+) |  | 301.9 | 302.3 |
| CCCCCCCCCCCCC/C=C/[C@@H](O)[C@H](COP(=O)([O-])OCC[N+](C)(C)C)NC(=O)CCCCCCCCCCCCCCCCCCCCCCC [SM d18:1_24:0@] (ion (formula + adduct): [C47H95N2O6P+H] 1+) | 308.3 | 308.1 |  |
